Values of other authors in PMC10006169, “A phase I trial of LXS196, a protein kinase C (PKC) inhibitor, for metastatic uveal melanoma” (British Journal of Cancer, 2023).

Key:
[1] = system: HLA-A*02:01-positive patients with first-line MUM; design: method as in PMID 34551229; settings: cited from earlier work
[2] = system: UM cell lines containing mutant GNAQ or GNA11; settings: cited from earlier work
92.1 human UM xenograft = system: 92.1 human UM xenograft; design: method as in PMID 27507190; settings: doses below MTD; cited from earlier work
patients with MUM = system: patients with MUM; design: method as in PMID 32029634; settings: cited from earlier work

Molecule | Hazard ratio (OS vs Investigator's choice) ([1]; 95% CI: 0.37–0.71) | 1-year OS rate ([1]; control group 59%) [%] | Sensitivity of UM cell lines carrying Gα subunit mutations [2] | Tumour effect as single agent (92.1 human UM xenograft) | Estimated median PFS (patients with MUM; 95% CI: 2.5–3.6) [months] | ORR (patients with MUM; across all doses) [%] | Dose-limiting toxicities (patients with MUM) | Median duration of SD (patients with MUM) [months] | Stable disease (SD) as best response (patients with MUM) [%]
tebentafusp: bispecific fusion protein (Immunocore) designed to redirect T cells to gp100-positive cells | 0.51 | 73 | – | – | – | – | – | – | –
CN1CCN(c2nc(C3=C(c4c[nH]c5ccccc45)C(=O)NC3=O)c3ccccc3n2)CC1 [AEB071, 3-(1H-Indol-3-yl)-4-[2-(4-methylpiperazin-1-yl)quinazolin-4-yl]pyrrole-2,5-dione] | – | – | selective sensitivity | stasis | 3.5 | 3 | increased frequency of dose-limiting gastrointestinal (GI) toxicities associated with increasing dose | 3.75 | 50
